Measurements taken from patent US20240425568A1, “COMBINATION THERAPIES FOR HIV INFECTIONS AND USES THEREOF” (VIIV HEALTHCARE COMPANY, priority 2021, published 2024).
Read-outs that look alike come from different tables or passages of the source.

Key:
[1] = target: T1, cell surface expressed HIV-1 envelope (Human immunodeficiency virus type 1 group M subtype B, UniProt P04578); type: cell-based, HIV-1 lab strain HxB2; details: for overall percentage of cells that contained bound bnAbs: 0.5 uM temsavir compared to DMSO only treated cells, FIG. 2; for binding of bnAb to the cell surface of CD4+/p24+ cells (mean fluorescent intensity, MFI): HIV infected cells treated with 0.5 uM temsavir for 24 hr, compared to DMSO only treated cells, bnAb 50 ug/mL to 0.01 ug/mL, FIG. 1
T1 construct: cell surface expressed HIV-1 envelope from a productive infection of human CD4^+ T cells; endogenous in cells; host or cells: primary human CD4+ T cells (from healthy-donor PBMCs) productively infected with HIV-1 HxB2 virus
Procedure: Preparation and HIV-1 infection of target cells: Peripheral blood mononuclear cells (PBMCs) were obtained by continuous-flow leukapheresis from healthy donors, isolated by ficoll-hypaque density gradient centrifugation and cryopreserved in the vapor phase of liquid nitrogen. PBMCs were rapidly thawed to room temperature in a 37° C. water bath and cultured in assay medium (RPMI 1640 media supplemented with 10% fetal calf serum plus 30 U/mL recombinant IL-2) containing 2 ug/mL phytohemagglutinin-P (Sigma) for three days in a humidified incubator at 37° C., 5% CO2. CD4^+ T cells were isolated by negative selection (Stemcell Technologies), washed twice and resuspended with assay medium at a final density of 1-2×10^6 cells/mL and incubated at 37° C., 5% CO2 overnight. Cells were centrifuged at 500×g for 10 minutes, resuspended with assay medium at 5×10^6 cell/mL and 200 uL (1×10^6 total cells) were distributed to 24-well tissue culture treated plates. An HIV-1 lab strain, HxB2 virus, previously propagated in human PBMC cells, was diluted with assay medium containing 50 ug/mL DEAE-dextran and 200 uL was added to the cells in the 24-well plates. The plates were centrifuged at 1,200×g for 1.5 hours and the infected cells were collected and pooled in a 50 ml conical tube. The infected cells were washed twice and resuspended in assay medium to a final density of 1-2×10^6 cells/mL and incubated at 37° C., 5% CO2 for three days.
Treatment of HIV-infected target cells with temsavir and N6 bnAbs: HIV infected cells were centrifuged at 500×g for 10 minutes, resuspended with assay medium at 3×10^6 cell/mL and 50 uL (150,000 total cells) were distributed to 96-well, U-bottom tissue-culture treated plates. […] The antibodies were eluted and diluted in buffer consisting of 150 mM Arginine, 50 mM Sodium acetate, pH 5.5, 150 mM NaCl) were serially titrated in assay medium and added to the temsavir-treated cells for a final concentration range of 50 ug/mL to 0.01 ug/mL. The plates were incubated at 37° C., 5% CO2 for 30 minutes.
Flow cytometry: The assay plates were removed from the incubator and the cells were pelleted by centrifugation at 500×g for 2 minutes at 25° C. The cells were washed twice by mixing with 200 μL of ice cold wash buffer (phosphate buffered saline containing 2% fetal calf serum) with centrifugation at 500×g for 2 minutes at 25° C. for each wash cycle. […] The stained cells were washed twice with wash buffer as indicated above, acquired on a Fortessa cytometer (BD Biosciences) and the data were analyzed by mean fluorescent intensity (MFI) using FlowJo v10.8 software (Tree Star).

[2] = test system: HIV infected CD4+ T cells; assay: ADCC assay: NK-directed killing of HIV infected CD4+ T cells; type: cell-based, human (infected with HIV-1 lab strain IIIB); details: for NK-directed killing of HIV infected cells mediated by CD4 binding site bnAbs (ADCC): temsavir 50 nM-0.08 nM for 16-24 hours, antibodies 5 ug/mL, Raltegravir in medium
Procedure: Isolation and preparation of target and effector cells: Peripheral blood mononuclear cells (PBMCs) were obtained by continuous-flow leukapheresis from healthy donors, isolated by ficoll-hypaque density gradient centrifugation and cryopreserved in the vapor phase of liquid nitrogen. PBMCs were rapidly thawed to room temperature in a 37° C. water bath and resuspended in RPMI 1640 media supplemented with 10% fetal calf serum. For the target cells, CD4+T lymphocytes were purified using immunomagnetic negative selection beads as per the manufacturer's instructions (StemCell Technologies). The cells were activated with phytohemagglutinin-P (Sigma; PHA-P; 5 μg/mL) for 72 hours at 37° C., 5% CO2 and then maintained under the same incubation conditions in RPMI 1640 medium supplemented with 10% fetal calf serum plus 50 U/mL recombinant IL-2. Natural Killer (NK) effector cells were purified from autologous PBMCs using immunomagnetic negative selection beads as per the manufacturer's instructions (StemCell Technologies). The cells were maintained in RPMI 1640 medium supplemented with 10% fetal calf serum and incubated at 37° C., 5% CO2 for 24 hr prior to ADCC assay.
Infection of target cells: HIV-1 lab strain IIIB was used to infect the activated CD4+T lymphocytes by spin infection at 1200×g for 1.5 hours in 24-well plates at 25° C. in the presence of 25 μg/mL DEAE-Dextran. The infected cells were collected, washed and resuspended in RPMI 1640 medium supplemented with 10% fetal calf serum plus 50 U/mL recombinant IL-2 and incubated at 37° C., 5% CO2 for 3 days until infection rates reached above 20%.
ADCC assay: HIV infected CD4^+ T cells (targets) were incubated with cell proliferation dye as per the manufacturer's instructions (eFluor670; eBioscience) and plated in 96-well U-bottom plates. Temsavir was dissolved in DMSO and diluted into RPMI 1640 medium supplemented with 10% fetal calf and serially titrated in the same medium in 5-fold increments for a dose range of 50 nM-0.08 nM. […]
The cells were then stained intracellularly for HIV-1 p24, using the Cytofix/Cytoperm Fixation/Permeabilization Kit (BD Biosciences) with subsequent addition of anti-p24 mAb (FITC anti-p24, clone KC57; Beckman Coulter/Immunotech; 1:200 final concentration) for 20-30 minutes at room temperature. […] The percentage of specific killing was calculated with the following formula: (% of p24^+ cells in Targets plus Effectors)−(% of p24^+ cells in Targets plus Effectors plus Abs)/(% of p24^+ cells in Targets alone without antibody or temsavir) by gating on live target cells.

COc1cnc(-n2cnc(C)n2)c2[nH]cc(C(=O)C(=O)N3CCN(C(=O)c4ccccc4)CC3)c12 [temsavir, 1-(4-benzoylpiperazin-1-yl)-2-[4-methoxy-7-(3-methyl-1,2,4-triazol-1-yl)-1H-pyrrolo[2,3-c]pyridin-3-yl]ethane-1,2-dione]
overall percentage of cells that contained bound bnAbs [1]: significant increase
overall percentage of cells that contained bound bnAbs ([1]; listed as Temsavir): enhancement
binding of bnAb to the cell surface of CD4+/p24+ cells (mean fluorescent intensity, MFI) [1]: enhancement
cell death of HIV infected primary cells in the absence of effector cells ([2]; effector cells eliminated from the assay, FIG. 4): does not lead to cell death
NK-directed killing of HIV infected cells mediated by CD4 binding site bnAbs (ADCC) ([2]; NK effector-to-target ratio 3:1, 24 hours, FIG. 3): Dose dependent temsavir enhancement
NK-directed killing of HIV infected cells mediated by CD4 binding site bnAbs (ADCC) ([2]; NK effector-to-target ratio 3:1, 24 hours, FIG. 3, listed as Temsavir): enhances

N6-LAGA: Fc binding-reduced N6 antibody, constant domain comprising L235A and G237A mutations; HC SEQ ID NO: 13
binding of bnAb to the cell surface of CD4+/p24+ cells (mean fluorescent intensity, MFI) [1]: substantial increase
magnitude of killing (maximum), percentage of specific killing ([2]; with temsavir titration 50 nM-0.08 nM, antibody 5 ug/mL, NK effector-to-target ratio 3:1, 24 hours, FIG. 3): 25%
